We go through 28 compounds from patent US7064207B2, “Androgen receptor antagonists” (Warner Lambert Company LLC, priority 2003, dated 2006).

As a reminder, the IC50 is the concentration that gives 50% inhibition.

SMILES strings stand for the structures. A value given as a limit tells only on which side of the number the result lay.

The first experiment has as its target T1, androgen receptor (Homo sapiens, UniProt P10275).
T1 sequence (P10275 1-920 Q868H): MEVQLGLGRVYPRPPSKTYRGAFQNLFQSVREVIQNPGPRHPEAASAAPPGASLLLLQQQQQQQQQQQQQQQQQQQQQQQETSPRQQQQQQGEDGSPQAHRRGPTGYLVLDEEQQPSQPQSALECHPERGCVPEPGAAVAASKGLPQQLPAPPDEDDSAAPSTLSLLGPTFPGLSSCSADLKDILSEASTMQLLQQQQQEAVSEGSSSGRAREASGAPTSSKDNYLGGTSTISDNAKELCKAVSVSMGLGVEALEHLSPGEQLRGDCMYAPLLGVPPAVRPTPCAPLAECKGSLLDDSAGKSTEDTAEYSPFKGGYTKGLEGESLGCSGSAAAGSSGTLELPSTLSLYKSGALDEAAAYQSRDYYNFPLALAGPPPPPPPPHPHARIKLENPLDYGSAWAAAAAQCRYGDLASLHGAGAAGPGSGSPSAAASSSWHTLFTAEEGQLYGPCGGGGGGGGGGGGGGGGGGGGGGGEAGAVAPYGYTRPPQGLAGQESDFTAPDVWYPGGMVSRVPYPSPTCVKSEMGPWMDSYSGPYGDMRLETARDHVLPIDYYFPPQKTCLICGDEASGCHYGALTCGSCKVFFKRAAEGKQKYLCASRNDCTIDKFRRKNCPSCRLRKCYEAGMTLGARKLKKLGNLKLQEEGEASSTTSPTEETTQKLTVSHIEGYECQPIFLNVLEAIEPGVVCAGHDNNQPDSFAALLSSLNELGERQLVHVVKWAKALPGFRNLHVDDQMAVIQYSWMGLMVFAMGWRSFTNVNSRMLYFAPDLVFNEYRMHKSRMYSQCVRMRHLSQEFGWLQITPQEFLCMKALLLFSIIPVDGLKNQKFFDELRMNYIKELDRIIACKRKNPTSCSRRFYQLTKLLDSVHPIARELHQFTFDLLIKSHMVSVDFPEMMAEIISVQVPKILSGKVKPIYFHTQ
Put plainly: AR Antagonist Cell Assay (MMTV-luciferase reporter, inhibition of DHT induction). It is filed as cell-based. As to conditions: MDA-MB453-MMTV clone 54-19 cells, 100 pM DHT, 17 hr, luciferase; read-out: Cell IC50. The protocol: The compounds ability to antagonize the effects of androgen on the androgen receptor were determined in the protocol described immediately below.
Experimental Procedure for AR Antagonist Cell Assay
Cell line: MDA-MB453-MMTV clone 54–19. This cell line is a stable transfected cell line with MDA-MB453 cell background (human breast tumor cell expressing high level of androgen receptor). A MMTV minimal promoter containing ARE was first cloned in front of a firefly luciferase reporter gene. Then the cascade was cloned into transfection vector pUV120puro. Electroporation method was used for transfecting MDA-MB-453 cell. Puromycin resistant stable cell line was selected. Cell Culture Media and Reagents:
Culture medium: DMEM (high glucose, Gibco cat #: 11960-044), 10% FBS, and 1% L-glutamine
Plating medium: DMEM (phenol red free), 10% charcoal treated HyClone serum, 1% L-glutamine
Assay medium: DMEM (phenol red free), 1% charcoal treated HyClone serum, 1% L-glutamine, and 1% penicillin/streptomycin
3× luciferase buffer: 2% beta-mercaptoethanol, 0.6% ATP, 0.0135% luciferine in cell lysis buffer
• 1. Cells are maintained in culture medium, splitting cells when they reach 80–90% confluence • 2. To test compounds, 10,000 cells/well are plated to opaque 96 cell culture plate in 100 ul/well plating medium, culture for overnight at 37° C. in cell culture incubator • 3. Carefully remove plating medium, then add 80 ul/well of pre-warmed assay medium, add 10 ul/well testing compound (final concentration at 10 uM or 1 uM), incubate at 37° C. for 30 minutes • 4. Add 10 ul/well freshly prepared DHT (final concentration at 100 pM) to each well, incubate at 37° C. for 17 hr (overnight) • 5. Add 50 ul/well 3× luciferase buffer, incubate at room temperature for 5 minutes, then count on Luminometer The fold induction over background by 100 pM DHT in the absence of testing compounds is standardized as 100% and experimental result is expressed as percentage of inhibition by testing compounds.
A general note: A reporter such as luciferase makes a cellular process visible.
Take `O=c1cc(C(F)(F)F)c2cc(S(=O)(=O)N3CCN(C4CCCC4)CC3)ccc2[nH]1` [Example 38, 6-(4-Cyclopentylpiperazine-1-sulfonyl)-4-trifluoromethyl-1H-quinolin-2-one]: the IC50 is > 10 µM.
The same measure, in the same setting: the figure for `O=c1cc(C(F)(F)F)c2cc(S(=O)(=O)N3CCCC3CN3CCCC3)ccc2[nH]1` (stereo not shown) [Example 41, 6-(2-Pyrrolidin-1-ylmethyl-pyrrolidine-1-sulfonyl)-4-trifluoromethyl-1H-quinolin-2-one] is 3.6 µM; for `O=c1cc(C(F)(F)F)c2cc(S(=O)(=O)N3CCCCC3CCO)ccc2[nH]1` (stereo not shown) [Example 29, 6-[2-(2-Hydroxyethyl)-piperidine-1-sulfonyl]-4-trifluoromethyl-1H-quinolin-2-one] it is > 10 µM.
For the compound `Cn1c(=O)cc(C(F)(F)F)c2cc(S(=O)(=O)N3CCCCCC3)ccc21` [Example 9, 6-(Azepane-1-sulfonyl)-1-methyl-4-trifluoromethyl-1H-quinolin-2-one], the IC50 is > 10 µM.
As to `Cn1c(=O)cc(C(F)(F)F)c2cc(S(=O)(=O)N3CCCc4ccccc43)ccc21` [Example 11, 6-(3,4-Dihydro-2H-quinoline-1-sulfonyl)-1-methyl-4-trifluoromethyl-1H-quinolin-2-one], the IC50 was > 10 µM.
`O=c1cc(C(F)(F)F)c2cc(S(=O)(=O)N3CCN(c4ccncc4)CC3)ccc2[nH]1` [Example 27, 6-(4-Pyridin-4-ylpiperazine-1-sulfonyl)-4-trifluoromethyl-1H-quinolin-2-one]: the IC50 is > 10 µM.
Same read-out and setting: under `O=c1cc(C(F)(F)F)c2cc(S(=O)(=O)N3CCCCCC3)ccc2[nH]1` [Example 36, 6-(Azepane-1-sulfonyl)-4-trifluoromethyl-1H-quinolin-2-one] stands 0.18 µM; under `O=c1cc(C(F)(F)F)c2cc(S(=O)(=O)N3CCN(CCOCCO)CC3)ccc2[nH]1` [Example 20, 6-{4-[2-(2-Hydroxyethoxy)-ethyl]piperazine-1-sulfonyl}-4-trifluoromethyl-1H-quinolin-2-one], > 10 µM; under `CCOC(=O)C1CCN(S(=O)(=O)c2ccc3c(c2)c(C(F)(F)F)cc(=O)n3C)CC1` [Example 3, 1-(1-Methyl-2-oxo-4-trifluoromethyl-1,2-dihydroquinoline-6-sulfonyl)piperidine-4-carboxylic acid ethyl ester], > 10 µM.
As to `COc1cc2c(cc1OC)CN(S(=O)(=O)c1ccc3[nH]c(=O)cc(C(F)(F)F)c3c1)CC2` [Example 21, 6-(6,7-Dimethoxy-3,4-dihydro-1H-isoquinoline-2-sulfonyl)-4-trifluoromethyl-1H-quinolin-2-one], the IC50 was found to be 0.48 µM.
The same measure, in the same setting: under `O=c1cc(C(F)(F)F)c2cc(S(=O)(=O)N3CCCC3CO)ccc2[nH]1` (stereo not shown) [Example 30, 6-(2-Hydroxymethyl-pyrrolidine-1-sulfonyl)-4-trifluoromethyl-1H-quinolin-2-one] stands 2.17 µM; under `O=c1cc(C(F)(F)F)c2cc(S(=O)(=O)N3CCSC3)ccc2[nH]1` [Example 26, 6-(Thiazolidine-3-sulfonyl)-4-trifluoromethyl-1H-quinolin-2-one], 0.16 µM.
Still for that read-out and setting: the figure for `O=c1cc(C(F)(F)F)c2cc(S(=O)(=O)N3CCCC3)ccc2[nH]1` [Example 33, 6-(Pyrrolidine-1-sulfonyl)-4-trifluoromethyl-1H-quinolin-2-one] is 0.31 µM.
In the case of `Cn1c(=O)cc(C(F)(F)F)c2cc(S(=O)(=O)N3CCCC4CCCCC43)ccc21` (stereo not shown) [Example 8, 1-Methyl-6-(octahydro-quinoline-1-sulfonyl)-4-trifluoromethyl-1H-quinolin-2-one], the IC50 was > 10 µM.
As to `O=c1cc(C(F)(F)F)c2cc(S(=O)(=O)N3CCN(c4ccccc4)CC3)ccc2[nH]1` [Example 28, 6-(4-Phenylpiperazine-1-sulfonyl)-4-trifluoromethyl-1H-quinolin-2-one], the IC50 was > 10 µM.
Consider `CC1CCN(S(=O)(=O)c2ccc3[nH]c(=O)cc(C(F)(F)F)c3c2)CC1` [Example 24, 6-(4-Methylpiperidine-1-sulfonyl)-4-trifluoromethyl-1H-quinolin-2-one], for which the IC50 is 0.96 µM.
On the same count and under the same terms, under `O=c1cc(C(F)(F)F)c2cc(S(=O)(=O)N3CCCCCCC3)ccc2[nH]1` [Example 12, 6-(Azocane-1-sulfonyl)-4-trifluoromethyl-1H-quinolin-one] stands 1.23 µM; under `Cn1c(=O)cc(C(F)(F)F)c2cc(S(=O)(=O)N3CCN(CCOCCO)CC3)ccc21` [Example 6, 6-{4-[2-(2-Hydroxyethoxy)-ethyl]piperazine-1-sulfonyl}-1-methyl-4-trifluoromethyl-1H-quinolin-2-one], > 10 µM; under `O=c1cc(C(F)(F)F)c2cc(S(=O)(=O)N3CCCC(CO)C3)ccc2[nH]1` (stereo not shown) [Example 25, 6-(3-Hydroxymethylpiperidine-1-sulfonyl)-4-trifluoromethyl-1H-quinolin-2-one], 3.54 µM.
Regarding `CCOC(=O)C1CCN(S(=O)(=O)c2ccc3[nH]c(=O)cc(C(F)(F)F)c3c2)CC1` [Example 15, 1-(2-Oxo-4-trifluoromethyl-1,2-dihydroquinoline-6-sulfonyl)piperidine-4-carboxylic acid ethylester], the IC50 came to 1.26 µM.
In the case of `O=c1cc(C(F)(F)F)c2cc(S(=O)(=O)N3CCC(O)(c4cccs4)CC3)ccc2[nH]1` [Example 16, 6-(4-Hydroxy-4-thiophen-2-ylpiperidine-1-sulfonyl)-4-trifluoromethyl-1H-quinolin-2-one], the half-inhibitory concentration (IC50) turned out to be 0.64 µM.
Take `CCN1CCN(S(=O)(=O)c2ccc3c(c2)c(C(F)(F)F)cc(=O)n3C)CC1` [Example 5, 6-(4-Ethylpiperazine-1-sulfonyl)-1-methyl-4-trifluoromethyl-1H-quinolin-2-one]: the IC50 was > 10 µM.
On to `O=c1cc(C(F)(F)F)c2cc(S(=O)(=O)N3CCN(c4ccccn4)CC3)ccc2[nH]1` [Example 40, 6-(4-Pyridin-2-ylpiperazine-1-sulfonyl)-4-trifluoromethyl-1H-quinolin-2-one], for which the IC50 was > 10 µM.
For the compound `O=C(CN1CCN(S(=O)(=O)c2ccc3[nH]c(=O)cc(C(F)(F)F)c3c2)CC1)N1CCCC1` [Example 23, 6-[4-(2-Oxo-2-pyrrolidin-1-ylethyl)piperazine-1-sulfonyl]-4-trifluoromethyl-1H-quinolin-2-one], the IC50 was > 10 µM.
On to `O=c1cc(C(F)(F)F)c2cc(S(=O)(=O)N3CCC(N4CCCC4)CC3)ccc2[nH]1` [Example 13, 6-(4-Pyrrolidin-1-ylpiperidine-1-sulfonyl)-4-trifluoromethyl-1H-quinolin-2-one], for which the IC50 was > 10 µM.
Turning to `O=c1cc(C(F)(F)F)c2cc(S(=O)(=O)N3CCCC4CCCCC43)ccc2[nH]1` (stereo not shown) [Example 31, 6-(Octahydroquinoline-1-sulfonyl)-4-trifluoromethyl-1H-quinolin-2-one], the IC50 amounted to 0.44 µM.
Turning to `COC(=O)[C@@H]1CCCN1S(=O)(=O)c1ccc2[nH]c(=O)cc(C(F)(F)F)c2c1` [Example 19, 1-(2-Oxo-4-trifluoromethyl-1,2-dihydroquinoline-6-sulfonyl)pyrrolidine-2-carboxylic acid methylester], the IC50 came to 2.24 µM.

Still in this experiment, the particulars now being: per procedure of Example 57; read-out: IC50.
Turning to `O=c1cc(C(F)(F)F)c2cc(S(=O)(=O)N3CCCCC3)ccc2[nH]1` [Example 2, 6-(Piperidine-1-sulfonyl)-4-trifluoromethyl-1H-quinolin-2-one], the IC50 was 0.181 µM.
